Reference: patent US8354441B2, “Oxazoline derivatives” (Hoffmann-La Roche Inc., priority 2009, dated 2013)

Tests used:
[1] = molecular target: T1, mouse TAAR1 (Mus musculus, UniProt Q923Y8); experiment: TAAR1 radioligand binding with [3H]-rac-2-(1,2,3,4-tetrahydro-1-naphthyl)-2-imidazoline, membranes of stably transfected HEK293 cells; conditions: first value of the cell, read-out: Ki (μM) mouse/rat: mouse
T1 construct: expressed in transfected cells; host or cells: HEK293 (ATCC # CRL-1573), stably transfected with pIRESneo2 expression plasmid
T1 sequence (Q923Y8 whole entry): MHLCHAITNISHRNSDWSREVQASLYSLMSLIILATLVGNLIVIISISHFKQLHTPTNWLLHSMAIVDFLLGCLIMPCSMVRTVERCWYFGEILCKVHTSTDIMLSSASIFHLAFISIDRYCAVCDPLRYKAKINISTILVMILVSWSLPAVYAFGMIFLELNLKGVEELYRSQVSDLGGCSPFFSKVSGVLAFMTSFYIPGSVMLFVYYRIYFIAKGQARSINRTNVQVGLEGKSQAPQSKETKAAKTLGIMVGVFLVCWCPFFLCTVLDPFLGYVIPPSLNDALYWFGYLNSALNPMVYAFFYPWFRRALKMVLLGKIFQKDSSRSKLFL
Experimental: (§1) For the construction of expression plasmids the coding sequences of human, rat and mouse TAAR 1 were amplified from genomic DNA essentially as described by Lindemann et al.. The Expand High Fidelity PCR System (Roche Diagnostics) was used with 1.5 mM Mg^2+ and purified PCR products were cloned into pCR2.1-TOPO cloning vector (Invitrogen) following the instructions of the manufacturer. PCR products were subcloned into the pIRESneo2 vector (BD Clontech, Palo Alto, Calif.), and expression vectors were sequence verified before introduction in cell lines.
(§2) HEK293 cells (ATCC # CRL-1573) were cultured essentially as described by Lindemann et al. (2005). For the generation of stably transfected cell lines HEK293 cells were transfected with the pIRESneo2 expression plasmids containing the TAAR coding sequences (described above) with Lipofectamine 2000 (Invitrogen) according to the instructions of the manufacturer, and 24 hrs post transfection the culture medium was supplemented with 1 mg/ml G418 (Sigma, Buchs, Switzerland). After a culture period of about 10 d clones were isolated, expanded and tested for responsiveness to trace amines (all compounds purchased from Sigma) with the cAMP Biotrak Enzyme immunoassay (EIA) System (Amersham) following the non-acetylation EIA procedure provided by the manufacturer.
(§3) Cells at confluence were rinsed with ice-cold phosphate buffered saline without Ca^2+ and Mg^2+ containing 10 mM EDTA and pelleted by centrifugation at 1000 rpm for 5 min at 4° C. The pellet was then washed twice with ice-cold phosphate buffered saline and the cell pellet was frozen immediately by immersion in liquid nitrogen and stored until use at −80° C. The cell pellet was then suspended in 20 ml HEPES-NaOH (20 mM), pH 7.4 containing 10 mM EDTA, and homogenized with a Polytron (PT 3000, Kinematica) at 10,000 rpm for 10 s. The homogenate was centrifuged at 48,000×g for 30 min at 4° C. and the pellet resuspended in 20 ml HEPES-NaOH (20 mM), pH 7.4 containing 0.1 mM EDTA (buffer A), and homogenized with a Polytron at 10,000 rpm for 10 s. The homogenate was then centrifuged at 48,000×g for 30 min at 4° C. and the pellet resuspended in 20 ml buffer A, and homogenized with a Polytron at 10,000 rpm for 10 s. Protein concentration was determined by the method of Pierce (Rockford, Ill.). The homogenate was then centrifuged at 48,000×g for 10 min at 4° C., resuspended in HEPES-NaOH (20 mM), pH 7.0 including MgCl2 (10 mM) and […] homogenized with a Polytron at 10,000 rpm for 10 s.
(§4) The binding assay was performed at 4° C. in a final volume of 1 ml, and with an incubation time of 30 min. The radioligand [^3H]-rac-2-(1,2,3,4-tetrahydro-1-naphthyl)-2-imidazoline was used at a concentration equal to the calculated Kd value of 60 nM to give a bound at around 0.1% of the total added radioligand concentration, and a specific binding which represented approximately 70-80% of the total binding. Non-specific binding was defined as the amount of [^3H]-rac-2-(1,2,3,4-tetrahydro-1-naphthyl)-2-imidazoline bound in the presence of the appropriate unlabelled ligand (10 μM). Competing ligands were tested in a wide range of concentrations (10 pM-30 μM). […] Each experiment was performed in duplicate. All incubations were terminated by rapid filtration through UniFilter-96 plates (Packard Instrument Company) and glass filter GF/C, pre-soaked for at least 2 h in polyethylenimine 0.3%, and using a Filtermate 96 Cell Harvester (Packard Instrument Company). The tubes and filters were then washed 3 times with 1 ml aliquots of cold buffer B. Filters were not dried and soaked in Ultima gold (45 μl/well, Packard Instrument Company) and bound radioactivity was counted by a TopCount Microplate Scintillation Counter (Packard Instrument Company).

[2] = molecular target: T2, rat TAAR1 (Rattus norvegicus, UniProt Q923Y9); experiment: as above; conditions: second value of the cell, read-out: Ki (μM) mouse/rat: rat
T2 construct: expressed in transfected cells; host or cells: HEK293 (ATCC # CRL-1573), stably transfected with pIRESneo2 expression plasmid
T2 sequence (Q923Y9 whole entry): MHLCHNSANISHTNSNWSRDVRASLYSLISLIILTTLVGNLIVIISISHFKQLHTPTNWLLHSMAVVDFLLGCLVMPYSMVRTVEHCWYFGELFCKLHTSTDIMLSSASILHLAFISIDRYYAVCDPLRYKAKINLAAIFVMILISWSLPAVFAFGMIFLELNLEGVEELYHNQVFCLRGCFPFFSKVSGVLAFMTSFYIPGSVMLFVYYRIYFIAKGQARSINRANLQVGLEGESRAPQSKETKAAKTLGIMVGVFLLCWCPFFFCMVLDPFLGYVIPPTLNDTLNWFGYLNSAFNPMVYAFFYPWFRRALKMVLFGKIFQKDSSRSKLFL
Experimental: as §1, §2, §3, §4

Ki [1]	Ki [2]	Compound
0.0006 µM	0.0011 µM	NC1=N[C@@H](CCc2ccc(NC(=O)C(F)(F)c3ccc(Cl)c(Cl)c3)cc2)CO1 [Example 125, (S)-N-(4-(2-(2-Amino-4,5-dihydrooxazol-4-yl)ethyl)phenyl)-2-(3,4-dichlorophenyl)-2,2-difluoroacetamide]
0.001 µM	0.001 µM	NC1=N[C@@H](CCc2ccc(NC(=O)Cc3ccc(Cl)cc3)cc2)CO1 [Example 70, N-{4-[2-((S)-2-Amino-4,5-dihydro-oxazol-4-yl)-ethyl]-phenyl}-2-(4-chloro-phenyl)-acetamide]
0.0036 µM	0.0029 µM	CC(C)c1cc(C(=O)Nc2ccc(CC[C@H]3COC(N)=N3)cc2)ccn1 [Example 198, (S)-N-(4-(2-(2-Amino-4,5-dihydrooxazol-4-yl)ethyl)phenyl)-2-isopropylisonicotinamide]
0.009 µM	0.0073 µM	CO[C@H](C(=O)Nc1ccc(CC[C@H]2COC(N)=N2)cc1)c1ccccc1 [Example 74, (S)-N-{4-[2-((S)-2-Amino-4,5-dihydro-oxazol-4-yl)-ethyl]-phenyl}-2-methoxy-2-phenyl-acetamide]
0.0014 µM	0.0014 µM	NC1=N[C@@H](CCc2ccc(NC(=O)c3ccnc(Cl)c3)cc2)CO1 [Example 173, (S)-N-(4-(2-(2-Amino-4,5-dihydrooxazol-4-yl)ethyl)phenyl)-2-chloroisonicotinamide]
0.003 µM	0.0049 µM	CC(C)(C)c1cc(C(=O)Nc2ccc(CC[C@H]3COC(N)=N3)cc2)ccn1 [Example 197, (S)-N-(4-(2-(2-Amino-4,5-dihydrooxazol-4-yl)ethyl)phenyl)-2-tert-butylisonicotinamide]
0.0015 µM	0.0044 µM	N#Cc1ccc(C(=O)Nc2ccc(CC[C@H]3COC(N)=N3)cc2)nc1 [Example 119, (S)-N-(4-(2-(2-Amino-4,5-dihydrooxazol-4-yl)ethyl)phenyl)-5-cyanopicolinamide]
0.0003 µM	0.0005 µM	C#Cc1ccc(C(=O)Nc2ccc(CC[C@H]3COC(N)=N3)cc2)cc1 [Example 62, N-{4-[2-((S)-2-Amino-4,5-dihydro-oxazol-4-yl)-ethyl]-phenyl}-4-ethynyl-benzamide]
0.0043 µM	0.0043 µM	NC1=N[C@@H](CCc2ccc(NC(=O)c3ccc(Cl)nn3)cc2)CO1 [Example 122, (S)-N-(4-(2-(2-Amino-4,5-dihydrooxazol-4-yl)ethyl)phenyl)-6-chloropyridazine-3-carboxamide]
0.0048 µM	0.0031 µM	COC(C(=O)Nc1ccc(CC[C@H]2COC(N)=N2)cc1)c1ccc(Cl)cc1 (stereo partly drawn) [Example 78, N-{4-[2-((S)-2-Amino-4,5-dihydro-oxazol-4-yl)-ethyl]-phenyl}-2-(4-chloro-phenyl)-2-methoxy-acetamide]
0.0001 µM	0.0001 µM	NC1=N[C@@H](CCc2ccc(NC(=O)Nc3cccc(Cl)c3)cc2)CO1 [Example 95, 1-{4-[2-((S)-2-Amino-4,5-dihydro-oxazol-4-yl)-ethyl]-phenyl}-3-(3-chloro-phenyl)-urea]
0.004 µM	0.0018 µM	NC1=N[C@@H](CCc2ccc(NC(=O)c3cncc(F)c3)cc2)CO1 [Example 100, N-{4-[2-((S)-2-Amino-4,5-dihydro-oxazol-4-yl)-ethyl]-phenyl}-5-fluoro-nicotinamide]
0.0007 µM	0.0011 µM	COc1cc(C(=O)Nc2ccc(CC[C@H]3COC(N)=N3)cc2)nc(C(C)C)n1 [Example 207, 2-Isopropyl-6-methoxy-pyrimidine-4-carboxylic acid {4-[2-((S)-2-amino-4,5-dihydro-oxazol-4-yl)-ethyl]-phenyl}-amide]
0.0013 µM	0.0005 µM	NC1=N[C@@H](CCc2ccc(NC(=O)c3cccc(Br)n3)cc2)CO1 [Example 112, 6-Bromo-pyridine-2-carboxylic acid {4-[2-((S)-2-amino-4,5-dihydro-oxazol-4-yl)-ethyl]-phenyl}-amide]
0.0009 µM	0.0005 µM	COc1ccc(C(=O)Nc2ccc(CC[C@H]3COC(N)=N3)cc2)cc1 [Example 71, N-{4-[2-((S)-2-Amino-4,5-dihydro-oxazol-4-yl)-ethyl]-phenyl}-4-methoxy-benzamide]

The remaining lines, values behind:

Compound	Ki [1]	Ki [2]
CCOc1cnc(C(=O)Nc2ccc(CC[C@@H]3N=C(N)O[C@H]3C)cc2)cn1 [Example 218, 5-Ethoxy-pyrazine-2-carboxylic acid {4-[2-((4S,5S)-2-amino-5-methyl-4,5-dihydro-oxazol-4-yl)-ethyl]-phenyl}-amide]	0.0014 µM	0.0035 µM
NC1=N[C@@H](CCc2ccc(NC(=O)c3cnc(Cl)c(Cl)c3)cc2)CO1 [Example 109, N-{4-[2-((S)-2-Amino-4,5-dihydro-oxazol-4-yl)-ethyl]-phenyl}-5,6-dichloro-nicotinamide]	0.0006 µM	0.0016 µM
CCc1cnc(C(=O)Nc2ccc(CC[C@@H]3N=C(N)O[C@H]3C)cc2)cn1 [Example 227, 5-Ethyl-pyrazine-2-carboxylic acid {4-[2-((4S,5S)-2-amino-5-methyl-4,5-dihydro-oxazol-4-yl)-ethyl]-phenyl}-amide]	0.007 µM	0.0059 µM
CC(C)c1sc(N(C)C)nc1C(=O)Nc1ccc(CC[C@H]2COC(N)=N2)cc1 [Example 189, (S)-N-(4-(2-(2-Amino-4,5-dihydrooxazol-4-yl)ethyl)phenyl)-2-(dimethylamino)-5-isopropylthiazole-4-carboxamide]	0.0008 µM	0.0018 µM
NC1=N[C@@H](CCc2ccc(NC(=O)c3ccnc(Cl)c3F)cc2)CO1 [Example 174, (S)-N-(4-(2-(2-Amino-4,5-dihydrooxazol-4-yl)ethyl)phenyl)-2-chloro-3-fluoroisonicotinamide]	0.0035 µM	0.0016 µM
NC1=N[C@@H](CCc2ccc(NC(=O)c3cc(F)cnc3F)cc2)CO1 [Example 107, N-{4-[2-((S)-2-Amino-4,5-dihydro-oxazol-4-yl)-ethyl]-phenyl}-2,5-difluoro-nicotinamide]	0.0014 µM	0.0012 µM
CC[C@@H](C[C@H]1COC(N)=N1)c1ccc(NC(=O)Nc2ccc(C(F)(F)F)cc2)cc1 [Example 13, 1-{4-[(S)-1-((S)-2-Amino-4,5-dihydro-oxazol-4-ylmethyl)-propyl]-phenyl}-3-(4-trifluoromethyl-phenyl)-urea]	0.0007 µM	0.0023 µM
Cc1cc(C(=O)Nc2ccc(CC[C@H]3COC(N)=N3)cc2)sc1C [Example 202, (S)-N-(4-(2-(2-Amino-4,5-dihydrooxazol-4-yl)ethyl)phenyl)-4,5-dimethylthiophene-2-carboxamide]	0.0007 µM	0.0004 µM
NC1=N[C@@H](C[C@@H](Oc2ccc(NC(=O)c3ccc(Cl)cc3)cc2)C(F)(F)F)CO1 [Example 150, N-{4-[(R)-1-((S)-2-Amino-4,5-dihydro-oxazol-4-ylmethyl)-2,2,2-trifluoro-ethoxy]-phenyl}-4-chloro-benzamide]	0.0004 µM	0.0005 µM
NC1=N[C@@H](CCc2ccc(NC(=O)c3cnc(N4CCC(F)(F)CC4)cn3)cc2)CO1 [Example 164]	0.0018 µM	0.0027 µM
NC1=N[C@@H](CCc2ccc(NC(=O)c3cc(Cl)cc(Cl)n3)cc2)CO1 [Example 158, (S)-N-(4-(2-(2-Amino-4,5-dihydrooxazol-4-yl)ethyl)phenyl)-4,6-dichloropicolinamide]	0.0006 µM	0.0006 µM
